Data reported in patent US8853246B2 (Dow AgroSciences LLC, priority 2009, dated 2014).
Like-named read-outs stand apart in the source and are kept apart here.

Tests used:
[1] = tested on: Sweetpotato Whitefly-Crawler (Bemisia Tabaci); test: Insecticidal test for sweetpotato whitefly-crawler in foliar spray assay (col. BEMITA); format: in vivo; details: Bemisia tabaci, read-out: BEMITA 200 ppm (Corrected % Control, rating)
How it was run: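 Percent control, Abbott-corrected against diluent-sprayed plants, from microscope counts of live nymphs 8-9 days after treatment. Test solution at 200 ppm in 0.025% aqueous Tween 20 applied to both leaf sides of egg-infested cotton after a 5-6 day hatch period (82° F, 50% RH).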

[2] = tested on: Green Peach Aphid (Myzus Persicae); test: Insecticidal test for green peach aphid in foliar spray assay (col. MYZUPE); format: in vivo; details: Myzus persicae, 72 h, read-out: MYZUPE 200 ppm (Corrected % Control, rating)
How it was run: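 Corrected % control derives from microscope counts of live aphids per plant, treated against diluent-only checks, 3 days after foliar spraying at ~25 °C and 40% RH. Test solution was 200 ppm in 0.025% aqueous Tween 20, applied to both leaf sides of infested cabbage seedlings, four pots each.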

C/C=C/C(=O)N(C)c1sc(-c2cccnc2)nc1Br [Compound 526]
pest or weed control at 200 ppm ([1]; Abbott's correction formula): 80 to 100% | melting point: 121 to 125 °C | pest or weed control at 200 ppm ([2]; Abbott's correction formula): 80 to 100%

CSCCC(=O)Nc1sc(-c2cccnc2)nc1SC [Compound 589, 3-(methylthio)-N-(4-(methylthio)-2-(pyridin-3-yl)thiazol-5-yl)propanamide]
pest or weed control at 200 ppm ([1]; Abbott's correction formula): < 80% | melting point: 72 to 74 °C | pest or weed control at 200 ppm ([2]; Abbott's correction formula): < 80%

CSCC(C)(C)C(=O)N(C)c1cnc(-c2ccc(Cl)nc2)s1 [Compound 68]
pest or weed control at 200 ppm ([1]; sweetpotato whitefly-crawler): 80 to 100% | melting point: 104 to 108 °C | pest or weed control at 200 ppm ([2]; green peach aphid): 80 to 100%

CN(C(=O)C(C)(C)C)c1cnc(-c2cncc(F)c2)s1 [Compound 33]
pest or weed control at 200 ppm ([1]; sweetpotato whitefly-crawler): 80 to 100% | melting point: 153 to 155 °C | pest or weed control at 200 ppm ([2]; green peach aphid): < 80%

CSCCNC(=O)N(C)c1sc(-c2cccnc2)nc1C [Compound 177]
pest or weed control at 200 ppm ([1]; sweetpotato whitefly-crawler): < 80% | melting point: 115 to 119 °C | pest or weed control at 200 ppm ([2]; green peach aphid): 80 to 100%

CC(C)C(=O)N(C)c1cnc(-c2cncc(F)c2)s1 [Compound 32]
pest or weed control at 200 ppm ([1]; sweetpotato whitefly-crawler): 80 to 100% | melting point: 156 to 158 °C | pest or weed control at 200 ppm ([2]; green peach aphid): 80 to 100%

CN(C(=O)CC[S+](C)[O-])c1sc(-c2cncc(F)c2)nc1Br (stereo not shown) [Compound 454]
pest or weed control at 200 ppm ([1]; Abbott's correction formula): 80 to 100% | melting point: 170 to 173 °C | pest or weed control at 200 ppm ([2]; Abbott's correction formula): 80 to 100%

CSCCOC(=O)Nc1sc(-c2cccnc2)nc1C [Compound 181]
pest or weed control at 200 ppm ([1]; sweetpotato whitefly-crawler): < 80% | melting point: 123 to 126 °C | pest or weed control at 200 ppm ([2]; green peach aphid): 80 to 100%

CN(CC[S+](C)[O-])C(=O)N(C)c1cnc(-c2cncc(F)c2)s1 (stereo not shown) [Compound 83]
pest or weed control at 200 ppm ([1]; sweetpotato whitefly-crawler): 80 to 100% | melting point: 95 to 99 °C | pest or weed control at 200 ppm ([2]; green peach aphid): 80 to 100%

CSCC(C)C(=O)N(C(=O)OC(C)(C)C)c1sc(-c2ccc(Cl)nc2)nc1C (stereo not shown) [Compound 153]
pest or weed control at 200 ppm ([1]; sweetpotato whitefly-crawler): 80 to 100% | melting point: 82 to 85 °C | pest or weed control at 200 ppm ([2]; green peach aphid): < 80%

CC(C[S+](C)[O-])C(=O)N(C)c1sc(-c2cnc(Cl)c(F)c2)nc1Cl (stereo not shown) [Compound 474]
pest or weed control at 200 ppm ([1]; Abbott's correction formula): < 80% | melting point: 30 to 35 °C | pest or weed control at 200 ppm ([2]; Abbott's correction formula): < 80%

CC(CS(C)(=O)=O)C(=O)Nc1sc(-c2cncc(F)c2)nc1Br (stereo not shown) [Compound 307]
pest or weed control at 200 ppm ([1]; sweetpotato whitefly-crawler): < 80% | melting point: 185 to 188 °C | pest or weed control at 200 ppm ([2]; green peach aphid): 80 to 100%

CC(C)(C)OC(=O)Nc1sc(-c2cccnc2)nc1F [Compound 478]
pest or weed control at 200 ppm ([1]; Abbott's correction formula): < 80% | melting point: 184 to 186 °C | pest or weed control at 200 ppm ([2]; Abbott's correction formula): 80 to 100%

CN(C(=O)c1cccnc1)c1cnc(-c2cccnc2)s1 [Compound 26]
pest or weed control at 200 ppm ([1]; sweetpotato whitefly-crawler): < 80% | melting point: 173 to 175 °C | pest or weed control at 200 ppm ([2]; green peach aphid): < 80%

CCN(C(=O)c1cc(Cl)cc(Cl)c1)c1sc(-c2cccnc2)nc1Cl [Compound 564]
pest or weed control at 200 ppm ([1]; Abbott's correction formula): < 80% | melting point: 172 to 174 °C | pest or weed control at 200 ppm ([2]; Abbott's correction formula): < 80%

CSCC(C)C(=O)N(C(=O)OC(C)(C)C)c1sc(-c2cncc(C#N)c2)nc1C (stereo not shown) [Compound 158]
pest or weed control at 200 ppm ([1]; sweetpotato whitefly-crawler): < 80% | melting point: 125 to 128 °C | pest or weed control at 200 ppm ([2]; green peach aphid): < 80%

Cc1nc(-c2ccc(F)nc2)sc1NC(=O)C(C)C [Compound 71]
melting point: 182 to 186 °C | pest or weed control at 200 ppm ([2]; green peach aphid): 80 to 100%

CCN(C(=O)C(C)CS(C)(=O)=O)c1sc(-c2cccnc2)nc1Cl (stereo not shown) [Compound 349]
pest or weed control at 200 ppm ([1]; sweetpotato whitefly-crawler): 80 to 100% | melting point: 152 to 154 °C | pest or weed control at 200 ppm ([2]; green peach aphid): 80 to 100%

CC(C)(C)OC(=O)N(C(=O)OC(C)(C)C)c1sc(-c2cncc(F)c2)nc1Cl [Compound 352]
pest or weed control at 200 ppm ([1]; sweetpotato whitefly-crawler): < 80% | melting point: 125 to 128 °C | pest or weed control at 200 ppm ([2]; green peach aphid): 80 to 100%

CSCCC(=O)Nc1sc(-c2cccnc2)nc1C(F)(F)F [Compound 133]
pest or weed control at 200 ppm ([1]; sweetpotato whitefly-crawler): < 80% | melting point: 131 to 133 °C | pest or weed control at 200 ppm ([2]; green peach aphid): 80 to 100%

CC(=O)N(C)c1cnc(-c2cccnc2)s1 [Compound 22]
pest or weed control at 200 ppm ([1]; sweetpotato whitefly-crawler): < 80% | melting point: 162 to 163 °C | pest or weed control at 200 ppm ([2]; green peach aphid): < 80%

CSCCCC(=O)Nc1sc(-c2cccnc2)nc1C [Compound 374]
pest or weed control at 200 ppm ([1]; sweetpotato whitefly-crawler): 80 to 100% | melting point: 110 to 112 °C | pest or weed control at 200 ppm ([2]; green peach aphid): 80 to 100%

Cc1nc(-c2cncc(Br)c2)sc1N(C)C(=O)OC(C)(C)C [Compound 251]
pest or weed control at 200 ppm ([1]; sweetpotato whitefly-crawler): 80 to 100% | melting point: 74 to 76 °C | pest or weed control at 200 ppm ([2]; green peach aphid): < 80%

C=CC(=O)N(C(=O)OC(C)(C)C)c1sc(-c2cccnc2)nc1C [Compound 205]
pest or weed control at 200 ppm ([1]; sweetpotato whitefly-crawler): 80 to 100% | melting point: 68 to 70 °C | pest or weed control at 200 ppm ([2]; green peach aphid): 80 to 100%

Cc1nc(-c2cccnc2)sc1NC(=O)C(C)C [Compound 58]
pest or weed control at 200 ppm ([1]; sweetpotato whitefly-crawler): 80 to 100% | melting point: 159 to 162 °C | pest or weed control at 200 ppm ([2]; green peach aphid): 80 to 100%

CCS(=O)(=O)N1CCCC(C(=O)Nc2sc(-c3cccnc3)nc2C)C1 (stereo not shown) [Compound 388]
pest or weed control at 200 ppm ([1]; sweetpotato whitefly-crawler): 80 to 100% | melting point: 190 to 194 °C | pest or weed control at 200 ppm ([2]; green peach aphid): 80 to 100%

CSCCC(=O)Nc1sc(-c2cccnc2)nc1C [Compound 55]
pest or weed control at 200 ppm ([1]; sweetpotato whitefly-crawler): 80 to 100% | melting point: 136 to 139 °C | pest or weed control at 200 ppm ([2]; green peach aphid): 80 to 100%

CN(C(=O)OC(C)(C)C)c1sc(-c2cncc(F)c2)nc1I [Compound 497]
pest or weed control at 200 ppm ([1]; Abbott's correction formula): 80 to 100% | melting point: 70 to 71 °C | pest or weed control at 200 ppm ([2]; Abbott's correction formula): 80 to 100%

CSCCC(=O)Nc1sc(-c2cncc(F)c2)nc1Br [Compound 298]
pest or weed control at 200 ppm ([1]; sweetpotato whitefly-crawler): < 80% | melting point: 160 to 163 °C | pest or weed control at 200 ppm ([2]; green peach aphid): 80 to 100%

CSCCC(=O)Nc1sc(-c2cncc(F)c2)nc1Cl [Compound 421]
pest or weed control at 200 ppm ([1]; sweetpotato whitefly-crawler): < 80% | melting point: 153 to 154 °C | pest or weed control at 200 ppm ([2]; green peach aphid): 80 to 100%

COc1ncc(-c2nc(Cl)c(N(C)C(=O)CCSC)s2)cc1F [Compound 551]
pest or weed control at 200 ppm ([1]; Abbott's correction formula): < 80% | melting point: 92 to 94 °C | pest or weed control at 200 ppm ([2]; Abbott's correction formula): < 80%

C=CCN(C(=O)OC(C)(C)C)c1sc(-c2cccnc2)nc1C [Compound 356]
pest or weed control at 200 ppm ([1]; sweetpotato whitefly-crawler): 80 to 100% | melting point: 72 to 76 °C | pest or weed control at 200 ppm ([2]; green peach aphid): 80 to 100%

Cc1nc(-c2cccnc2)sc1NC(=O)Cn1nc(C)c(S(=O)(=O)N(C)C)c1C [Compound 389]
pest or weed control at 200 ppm ([1]; sweetpotato whitefly-crawler): < 80% | melting point: 214 to 215 °C | pest or weed control at 200 ppm ([2]; green peach aphid): < 80%

COCC(C)OC(=O)Nc1sc(-c2cccnc2)nc1C (stereo not shown) [Compound 325]
pest or weed control at 200 ppm ([1]; sweetpotato whitefly-crawler): 80 to 100% | melting point: 106 to 111 °C | pest or weed control at 200 ppm ([2]; green peach aphid): 80 to 100%

CC(C)C(=O)Nc1sc(-c2cccnc2)nc1C(F)(F)F [Compound 136]
pest or weed control at 200 ppm ([1]; sweetpotato whitefly-crawler): < 80% | melting point: 130 to 131 °C | pest or weed control at 200 ppm ([2]; green peach aphid): 80 to 100%

Cc1nc(-c2cccnc2)sc1NC(=O)C(C)(C)CS(C)(=O)=O [Compound 101]
pest or weed control at 200 ppm ([1]; sweetpotato whitefly-crawler): 80 to 100% | melting point: 134 to 136 °C | pest or weed control at 200 ppm ([2]; green peach aphid): 80 to 100%

CCN(C(=O)CCSC)c1cnc(-c2cncc(F)c2)s1 [Compound 308]
pest or weed control at 200 ppm ([1]; sweetpotato whitefly-crawler): 80 to 100% | melting point: 78 to 81 °C | pest or weed control at 200 ppm ([2]; green peach aphid): 80 to 100%

CN(C(=O)OCC[S+](C)[O-])c1cnc(-c2cncc(F)c2)s1 (stereo not shown) [Compound 84]
melting point: 153 to 155 °C | pest or weed control at 200 ppm ([2]; green peach aphid): 80 to 100%

CSCC(C)(C)C(=O)N(C)c1sc(-c2cncnc2)nc1C [Compound 53]
pest or weed control at 200 ppm ([1]; sweetpotato whitefly-crawler): 80 to 100% | melting point: 123 to 125 °C | pest or weed control at 200 ppm ([2]; green peach aphid): < 80%

CCN(C(=O)OC(C)(C)C)c1cnc(-c2cccnc2)s1 [Compound 477]
melting point: 65 to 67 °C

CN(C(=O)CC[S+](C)[O-])c1cnc(-c2cncc(F)c2)s1 (stereo not shown) [Compound 78, N-[2-(5-fluoropyridin-3-yl)-thiazol-5-yl]-3-methanesulfinyl-N-methyl-propionamide]
pest or weed control at 200 ppm ([1]; sweetpotato whitefly-crawler): < 80% | pest or weed control at 200 ppm ([2]; green peach aphid): 80 to 100%
